According to patent publication US20260028326A1, “COMPOUND BASED ON ISOINDOLINE-SUBSTITUTED GLUTARIMIDE BACKBONE AND USE THEREOF” (GLUETACS THERAPEUTICS (SHANGHAI) CO., LTD., priority 2022, published 2026):

How the values were obtained:
IKZF1 protein = IKZF1 protein (Homo sapiens (Human), UniProt Q13422+Q96SW2); assay: Western-blot assay of substrate protein degradation in hPBMC, IKZF1; type: cell-based; conditions: hPBMC cells, compound 500 nM, 24 hours, Western blot
Method: (§1) After treating the cells with the compounds for 24 hours, the cells were collected and lysed using RIPA protein lysate containing phosphatase inhibitors. The lysate was then placed on ice for 30-60 minutes and centrifuged. The supernatant was aspirated as the extracted total cell protein. The protein concentration of the supernatant was determined using the conventional BCA (Bicinchoninic Acid) assay. The supernatant was then mixed with 4×SDS sample loading buffer, denatured at 95° C. for 5 minutes, and then subjected to SDS-PAGE electrophoresis on a polyacrylamide gel, followed by transfer to a nitrocellulose membrane (NC membrane). The membrane was blocked with blocking buffer at room temperature for 1-2 hours, and then antibody incubation and detection were carried out according to the antibody instructions provided by Cell Signaling Technology.
(§2) Half-Maximal Degradation Concentration value (the drug concentration required for degrading proteins by 50%, abbreviated as DC50) reads method: comparing the gray values of the Western blotting bands for the drug treatment with the gray values of the Western blotting band for the DMSO control, and reading the drug concentration range corresponding to the gray value of the Western blotting bands for the drug treatment which is equal to half of the gray value of the Western blotting band for the DMSO control.
(§3) DC50 value could also be calculated as follows: using software ImageJ to quantify the gray values of the Western blotting bands for the drug treatment, fitting the relationship curve between drug concentrations and gray values, and from the fitted curve, calculating the drug concentration corresponding to half of the gray value of the Western blotting band for the DMSO control.

[1] = target: human Cereblon WT GST-tagged protein (Homo sapiens (Human), UniProt Q96SW2); assay: CRBN-binding affinity, HTRF (CEREBLON BINDING kit)
Method in brief: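 HTRF competition readout: compounds compete with a thalidomide-Re conjugate for GST-tagged wild-type human CRBN detected via Eu-labelled anti-GST antibody. Inhibition rate derived relative to protein-free blank wells.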

IKZF3 protein = IKZF3 protein (Homo sapiens (Human), UniProt Q96SW2+Q9UKT9); assay: Western-blot assay of substrate protein degradation in hPBMC, IKZF3; type: cell-based; conditions: hPBMC cells, compound 500 nM, 24 hours, Western blot
Method: as §1, §2, §3

GSPT1 protein = GSPT1 protein (Homo sapiens (Human), UniProt P15170+Q96SW2); assay: Western-blot assay of substrate protein degradation in hPBMC, GSPT1; type: cell-based; conditions: hPBMC cells, compound 500 nM, 24 hours, Western blot
Method: as §1, §2, §3

IKZF1 protein, sequence (Q13422 whole entry): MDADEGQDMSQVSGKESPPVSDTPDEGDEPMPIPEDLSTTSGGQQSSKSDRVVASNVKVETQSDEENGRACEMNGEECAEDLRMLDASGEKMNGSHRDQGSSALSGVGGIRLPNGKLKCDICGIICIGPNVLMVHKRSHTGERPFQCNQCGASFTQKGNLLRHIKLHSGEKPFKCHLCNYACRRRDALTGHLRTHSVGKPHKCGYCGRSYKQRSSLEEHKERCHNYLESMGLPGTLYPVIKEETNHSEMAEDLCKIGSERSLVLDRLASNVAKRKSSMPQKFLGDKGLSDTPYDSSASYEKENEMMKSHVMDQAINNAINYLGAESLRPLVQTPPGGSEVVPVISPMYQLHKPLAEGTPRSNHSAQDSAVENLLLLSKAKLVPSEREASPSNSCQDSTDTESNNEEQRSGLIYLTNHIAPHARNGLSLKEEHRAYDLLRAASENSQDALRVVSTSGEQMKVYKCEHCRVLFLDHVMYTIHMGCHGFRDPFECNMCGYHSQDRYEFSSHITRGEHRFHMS
IKZF1 protein, sequence (Q96SW2 whole entry): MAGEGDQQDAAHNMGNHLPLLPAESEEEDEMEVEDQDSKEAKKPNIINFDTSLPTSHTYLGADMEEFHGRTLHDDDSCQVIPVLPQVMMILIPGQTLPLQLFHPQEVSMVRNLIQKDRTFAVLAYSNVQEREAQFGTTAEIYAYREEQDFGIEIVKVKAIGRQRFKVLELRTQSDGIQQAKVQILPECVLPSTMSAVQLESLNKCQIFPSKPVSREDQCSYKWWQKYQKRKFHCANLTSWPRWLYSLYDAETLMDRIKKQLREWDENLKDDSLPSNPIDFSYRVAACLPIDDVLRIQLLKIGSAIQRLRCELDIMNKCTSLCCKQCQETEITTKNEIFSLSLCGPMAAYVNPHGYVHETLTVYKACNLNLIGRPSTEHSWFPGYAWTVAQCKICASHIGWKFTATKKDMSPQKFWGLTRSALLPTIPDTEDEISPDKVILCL
IKZF1 protein, sequence (Q16531 whole entry partner): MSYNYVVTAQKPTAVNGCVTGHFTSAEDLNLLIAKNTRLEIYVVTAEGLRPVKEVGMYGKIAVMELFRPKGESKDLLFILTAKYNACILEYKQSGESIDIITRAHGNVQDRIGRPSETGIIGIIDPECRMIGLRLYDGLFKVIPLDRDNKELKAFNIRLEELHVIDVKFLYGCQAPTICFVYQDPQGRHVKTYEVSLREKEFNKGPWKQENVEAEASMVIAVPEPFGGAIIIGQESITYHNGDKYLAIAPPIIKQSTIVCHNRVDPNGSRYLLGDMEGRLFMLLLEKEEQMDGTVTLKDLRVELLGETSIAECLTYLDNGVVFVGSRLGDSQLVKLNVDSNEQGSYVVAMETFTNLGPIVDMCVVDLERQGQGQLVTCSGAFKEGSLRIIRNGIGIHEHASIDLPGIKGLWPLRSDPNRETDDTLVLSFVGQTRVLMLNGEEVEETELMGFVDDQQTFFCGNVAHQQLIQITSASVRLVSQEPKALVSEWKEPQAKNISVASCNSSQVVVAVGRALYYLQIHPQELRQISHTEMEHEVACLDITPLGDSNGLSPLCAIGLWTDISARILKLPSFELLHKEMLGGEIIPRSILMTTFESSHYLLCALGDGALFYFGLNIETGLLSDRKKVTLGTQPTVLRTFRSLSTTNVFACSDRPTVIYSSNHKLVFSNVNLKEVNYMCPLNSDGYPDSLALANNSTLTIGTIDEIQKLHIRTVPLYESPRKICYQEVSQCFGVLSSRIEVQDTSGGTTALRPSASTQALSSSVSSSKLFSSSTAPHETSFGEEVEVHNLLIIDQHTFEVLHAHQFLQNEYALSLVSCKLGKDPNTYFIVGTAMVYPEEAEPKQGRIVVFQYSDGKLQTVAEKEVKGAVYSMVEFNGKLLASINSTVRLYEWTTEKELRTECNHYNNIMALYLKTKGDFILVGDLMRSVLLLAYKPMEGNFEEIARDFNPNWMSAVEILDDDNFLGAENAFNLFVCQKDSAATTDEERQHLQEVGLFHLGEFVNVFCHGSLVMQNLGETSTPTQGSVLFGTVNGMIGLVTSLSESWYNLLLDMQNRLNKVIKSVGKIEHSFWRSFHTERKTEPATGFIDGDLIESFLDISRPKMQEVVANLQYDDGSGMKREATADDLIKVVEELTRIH
GSPT1 protein, sequence (P15170 whole entry): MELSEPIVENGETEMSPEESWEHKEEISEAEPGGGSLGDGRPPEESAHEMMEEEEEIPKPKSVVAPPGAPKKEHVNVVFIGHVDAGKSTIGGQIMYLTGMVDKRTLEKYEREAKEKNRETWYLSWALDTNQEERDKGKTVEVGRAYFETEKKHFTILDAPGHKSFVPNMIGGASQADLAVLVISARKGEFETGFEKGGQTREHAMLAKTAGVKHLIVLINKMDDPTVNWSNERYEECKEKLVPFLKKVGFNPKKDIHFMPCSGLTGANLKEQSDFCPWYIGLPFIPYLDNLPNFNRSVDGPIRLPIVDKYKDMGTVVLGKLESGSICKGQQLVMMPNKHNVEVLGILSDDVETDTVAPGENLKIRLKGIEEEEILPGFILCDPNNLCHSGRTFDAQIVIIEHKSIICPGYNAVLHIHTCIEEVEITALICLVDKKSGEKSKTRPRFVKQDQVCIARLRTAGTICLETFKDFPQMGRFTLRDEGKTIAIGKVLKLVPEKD
GSPT1 protein, sequence (Q96SW2 whole entry): as the sequence (Q96SW2 whole entry) above
GSPT1 protein, sequence (Q16531 whole entry partner): as the sequence (Q16531 whole entry partner) above
IKZF3 protein, sequence (Q9UKT9 whole entry): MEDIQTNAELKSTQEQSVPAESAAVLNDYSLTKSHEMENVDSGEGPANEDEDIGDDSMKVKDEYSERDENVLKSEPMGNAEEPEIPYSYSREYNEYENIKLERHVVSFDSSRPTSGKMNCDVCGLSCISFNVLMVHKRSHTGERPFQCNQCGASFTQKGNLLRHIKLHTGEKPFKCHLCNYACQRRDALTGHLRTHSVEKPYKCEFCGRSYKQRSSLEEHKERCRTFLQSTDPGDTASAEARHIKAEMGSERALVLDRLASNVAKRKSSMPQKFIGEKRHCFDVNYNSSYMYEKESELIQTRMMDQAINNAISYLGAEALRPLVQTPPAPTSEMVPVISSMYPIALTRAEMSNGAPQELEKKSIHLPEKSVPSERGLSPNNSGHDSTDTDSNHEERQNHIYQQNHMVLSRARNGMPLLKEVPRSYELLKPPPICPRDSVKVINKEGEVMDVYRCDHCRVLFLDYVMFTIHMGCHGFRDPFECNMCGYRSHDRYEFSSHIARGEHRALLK
IKZF3 protein, sequence (Q96SW2 whole entry): as the sequence (Q96SW2 whole entry) above
IKZF3 protein, sequence (Q16531 whole entry partner): as the sequence (Q16531 whole entry partner) above
human Cereblon WT GST-tagged protein, sequence (Q96SW2 whole entry): as the sequence (Q96SW2 whole entry) above

Row | Structure (SMILES) | residual substrate protein level, IKZF1 (IKZF1 protein) | IC50 [1] | residual substrate protein level, IKZF3 (IKZF3 protein) | residual substrate protein level, GSPT1 (GSPT1 protein)
1 | O=C1CCC(N2Cc3cc(CN4CCN(C(=O)C5=C(c6ccc(F)cc6)CCCC5)CC4)c(F)cc3C2=O)C(=O)N1 (stereo not shown) [GT-05473, 3-(6-fluoro-5-((4-(4′-fluoro-3,4,5,6-tetrahydro-[1,1′-biphenyl]-2-carbonyl)piperazin-1-yl)methyl)-1-oxoisoindolin-2-yl)piperidine-2,6-dione] | B (B represents a residual substrate protein level of >50%) | 1160 nM | B (B represents a residual substrate protein level of >50%) | A (A represents a residual substrate protein level of <50%)
2 | CC1(C)CCC(CN2CC3CCC(C2)N3Cc2ccc3c(c2)C(=O)N(C2CCC(=O)NC2=O)C3=O)=C(c2ccc(Cl)cc2)C1 (stereo not shown) [GT-04719, 5-((3-((4′-chloro-5,5-dimethyl-3,4,5,6-tetrahydro-[1,1′-biphenyl]-2-yl)methyl)-3,8-diazabicyclo[3.2.1]octan-8-yl)methyl)-2-(2,6-dioxopiperidin-3-yl)isoindoline-1,3-dione] | B (B represents a residual substrate protein level of >50%) | – | B (B represents a residual substrate protein level of >50%) | A (A represents a residual substrate protein level of <50%)
3 | O=C1CCC(N2C(=O)c3ccc(CN4CCN(Cc5cccc(-c6ccc(Cl)cc6)c5)CC4)cc3C2=O)C(=O)N1 (stereo not shown) [GT-05630, 5-((4-((4′-chloro-[1,1′-biphenyl]-3-yl)methyl)piperazin-1-yl)methyl)-2-(2,6-dioxopiperidin-3-yl)isoindoline-1,3-dione] | B (B represents a residual substrate protein level of >50%) | – | A (A represents a residual substrate protein level of <50%) | B (B represents a residual substrate protein level of >50%)
4 | CC1(C)CCC(CN2CCN(Cc3ccc4c(c3)C(=O)N(C3CCC(=O)NC3=O)C4=O)C(C(F)(F)F)C2)=C(c2ccc(Cl)cc2)C1 (stereo not shown) [GT-06103, 5-((4-((4′-chloro-5,5-dimethyl-3,4,5,6-tetrahydro-[1,1′-biphenyl]-2-yl)methyl)-2-(trifluoromethyl)piperazin-1-yl)methyl)-2-(2,6-dioxopiperidin-3-yl)isoindoline-1,3-dione] | B (B represents a residual substrate protein level of >50%) | – | B (B represents a residual substrate protein level of >50%) | A (A represents a residual substrate protein level of <50%)
5 | CC1(C)CCC(CN2CC3CC2CN3Cc2ccc3c(c2)C(=O)N(C2CCC(=O)NC2=O)C3=O)=C(c2ccc(Cl)cc2)C1 (stereo not shown) [GT-05533, 5-((5-((4′-chloro-5,5-dimethyl-3,4,5,6-tetrahydro-[1,1′-biphenyl]-2-yl)methyl)-2,5-diazabicyclo[2.2.1]heptan-2-yl)methyl)-2-(2,6-dioxopiperidin-3-yl)isoindoline-1,3-dione] | A (A represents a residual substrate protein level of <50%) | – | A (A represents a residual substrate protein level of <50%) | A (A represents a residual substrate protein level of <50%)
6 | CC1(C)CCC(CN2CC3CCC2CN3C(=O)c2ccc3c(c2)C(=O)N(C2CCC(=O)NC2=O)C3=O)=C(c2ccc(Cl)cc2)C1 (stereo not shown) [GT-05414, 5-(5-((4′-chloro-5,5-dimethyl-3,4,5,6-tetrahydro-[1,1′-biphenyl]-2-yl)methyl)-2,5-diazabicyclo[2.2.2]octane-2-carbonyl)-2-(2,6-dioxopiperidin-3-yl)isoindoline-1,3-dione] | B (B represents a residual substrate protein level of >50%) | – | A (A represents a residual substrate protein level of <50%) | B (B represents a residual substrate protein level of >50%)
7 | O=C1CCC(N2C(=O)c3ccc(CN4CCN(CC5=C(c6ccc(F)cc6)CCCC5)CC4)cc3C2=O)C(=O)N1 (stereo not shown) [GT-05464, 2-(2,6-dioxopiperidin-3-yl)-5-((4-((4′-fluoro-3,4,5,6-tetrahydro-[1,1′-biphenyl]-2-yl)methyl)piperazin-1-yl)methyl)isoindoline-1,3-dione] | B (B represents a residual substrate protein level of >50%) | – | A (A represents a residual substrate protein level of <50%) | B (B represents a residual substrate protein level of >50%)
8 | CC1(C)CCC(CN2CC3CCC(C2)N3c2ccc3c(c2)CN(C2CCC(=O)NC2=O)C3=O)=C(c2ccc(Cl)cc2)C1 (stereo not shown) [GT-05430, 3-(5-(3-((4′-chloro-5,5-dimethyl-3,4,5,6-tetrahydro-[1,1′-biphenyl]-2-yl)methyl)-3,8-diazabicyclo[3.2.1]octan-8-yl)-1-oxoisoindolin-2-yl)piperidine-2,6-dione] | B (B represents a residual substrate protein level of >50%) | – | B (B represents a residual substrate protein level of >50%) | A (A represents a residual substrate protein level of <50%)
9 | CC1(C)CCC(CN2CC3(C2)CN(Cc2ccc4c(c2)C(=O)N(C2CCC(=O)NC2=O)C4=O)C3)=C(c2ccc(Cl)cc2)C1 (stereo not shown) [GT-05675, 5-((6-((4′-chloro-5,5-dimethyl-3,4,5,6-tetrahydro-[1,1′-biphenyl]-2-yl)methyl)-2,6-diazaspiro[3.3]heptan-2-yl)methyl)-2-(2,6-dioxopiperidin-3-yl)isoindoline-1,3-dione] | B (B represents a residual substrate protein level of >50%) | – | B (B represents a residual substrate protein level of >50%) | B (B represents a residual substrate protein level of >50%)
10 | O=C1CCC(N2C(=O)c3ccc(C(=O)N4CCN(Cc5ccc(-c6ccc(Cl)cc6)cc5)CC4)cc3C2=O)C(=O)N1 (stereo not shown) [GT-05600, 5-(4-((4′-chloro-[1,1′-biphenyl]-4-yl)methyl)piperazine-1-carbonyl)-2-(2,6-dioxopiperidin-3-yl)isoindoline-1,3-dione] | B (B represents a residual substrate protein level of >50%) | – | B (B represents a residual substrate protein level of >50%) | A (A represents a residual substrate protein level of <50%)
11 | O=C1CCC(N2Cc3cc(CC4CN(Cc5ccccc5-c5ccc(Cl)cc5)C4)ccc3C2=O)C(=O)N1 (stereo not shown) [GT-03923, 3-(5-((1-((4′-chloro-[1,1′-biphenyl]-2-yl)methyl)azetidin-3-yl)methyl)-1-oxoisoindolin-2-yl)piperidine-2,6-dione] | – | 170 nM | – | –
12 | O=C1CCC(N2Cc3cc(NC4CCN(Cc5ccccc5-c5ccc(Cl)cc5)CC4)ccc3C2=O)C(=O)N1 (stereo not shown) [GT-03877, 3-(5-((1-((4′-chloro-[1,1′-biphenyl]-2-yl)methyl)piperidin-4-yl)amino)-1-oxoisoindolin-2-yl)piperidine-2,6-dione] | – | 1400 nM | – | –
13 | CC1(C)CCC(CN2C[C@H]3C[C@@H]2CN3Cc2ccc3c(c2F)CN(C2CCC(=O)NC2=O)C3=O)=C(c2ccc(Cl)cc2)C1 (stereo partly drawn) [GT-03888, 3-(5-(((1R,4R)-5-((4′-chloro-5,5-dimethyl-3,4,5,6-tetrahydro-[1,1′-biphenyl]-2-yl)methyl)-2,5-diazabicyclo[2.2.1]heptan-2-yl)methyl)-4-fluoro-1-oxoisoindolin-2-yl)piperidine-2,6-dione] | – | 240 nM | – | –
